≈ marks a conversion by molar mass, not a printed value.
Experiments:
[1] = tested on: Staphylococcus aureus ATCC25923; test: Bacterial growth inhibition (MIC) test, microtiter plate, CLSI protocol; format: cell-based; settings: Staphylococcus aureus, ATCC25923; S. aureus 25923; 37° C., 24 hours; read-out: MIC
[2] = tested on: Escherichia coli ATCC 25922; test: as above; format: cell-based; settings: Escherichia coli, ATCC25922; E. coli 25922; Luria-Bertani medium, 37° C., 24 hours; read-out: MIC
[3] = tested on: azole-resistant Candida albicans ATCC 64124; test: Antifungal synergism by checkerboard analysis, K-compound and azole combinations; format: cell-based; settings: Candida albicans, ATCC64124, K4608 checkerboard table; compound alone
HeLa cells = test: Cell viability assay (MTT), cytotoxicity test; format: cell-based, human; settings: for Viable Cells Percentage Compared to Control: MTT
Description: HeLa cells were grown in commercial DMEM 1× (Gibco) with 10% fetal bovine serum (FBS, Gibco), 100 U/mL penicillin, and 100 μg/mL streptomycin at 37° C. and 5% CO2. The cells were allowed to adhere for 24 h before drug treatment.
The cells were seeded in 96-well microtiter plates (10,000/200 μL). After 24 h of incubation in the media, cells were treated with various concentrations of K608, K4608 and K408 (0.0, 1.0, 10.0, 100.0, 1000 μg/mL and Trition 1×) for 48 h. 20 μL of MTT stock solution (5 mg/mL) was added to each well and incubated for 4 h at 37° C. Upon completion of incubation, the media was carefully removed and washed twice with […] of pbs buffer. Then, 200 μL of DMSO was added to each well; agitated on orbital shaker for 15 min., and the absorbance at 570 nm with 670 nm filter was determined with a microplate reader (Synergy H4). The results are expressed as viability compared with that of control. The experiment was carried out in triplicate in three independent experiments.

[4] = tested on: Fusarium graminearum B4-5A; test: microbe, parasite or virus in culture; format: cell-based; settings: Fusarium graminearum, B45A, 48 h
[5] = tested on: Candida albicans ATCC64124 (azole-resistant); test: microbe, parasite or virus in culture; format: cell-based
[6] = tested on: Candida albicans ATCC MYA-2876 (azole sensitive); test: Fungal MIC and MFC, microbroth dilution assay (M27-A3); format: cell-based; settings: C. albicans MYA2876 (azole sensitive)

With `CCCCCCCCOC[C@H]1OC(O[C@@H]2C(N)CC(N)C(O[C@H]3OC(CN)[C@@H](O)[C@H](O)C3O)[C@@H]2O)[C@H](O)[C@H](N)C1OCCCCCCCC` (some centres unmarked) [Compound K4608] the MIC [1] was greater than 250 µg/mL, the MIC [2] was greater than 250 µg/mL and the MIC [3] was 31.2 µg/mL. The “toxicity to human cervical cancer cell line HeLa” value (HeLa cells; 1.0 to 1000 μg/mL, 48 h) was “not toxic”, the “Viable Cells Percentage Compared to Control” value (HeLa cells; HeLa, 1 μg/mL, 48 h) was 124.28% and the “Viable Cells Percentage Compared to Control” value (HeLa cells; HeLa, 10 μg/mL, 48 h) was 149.52%. For the same molecule, the “Viable Cells Percentage Compared to Control” value (HeLa cells; HeLa, 100 μg/mL, 48 h) was 129.86%, the “Viable Cells Percentage Compared to Control” value (HeLa cells; HeLa, 1000 μg/mL, 48 h) was 122.93% and the “effect on growth of cells (number of viable cells)” value (HeLa cells; HeLa, wells treated with compound) was “promoted growth of cells”. For the same molecule, the MIC [4] was 15.6 µg/mL (≈ 22 µM), the MFC ([5]; ATCC64124) was 9.8 µg/mL (≈ 13.8 µM) and the MIC ([5]; ATCC64124, 48 h) was 4.9 to 9.8 µg/mL (≈ 6.91 to 13.8 µM). The MIC ([6]; RPMI 1640, 35° C., 48 hours) was 1.2 to 2.4 µg/mL (≈ 1.69 to 3.39 µM) and the MFC ([6]; subculture on Sabouraud dextrose agar after MIC test) was 2.4 µg/mL (≈ 3.39 µM).

— patent US20160060285A1, “Aminoglycosides, Methods of Synthesis, and Associated Applications” (UTAH STATE UNIVERSITY, priority 2010, published 2016)
